# In patent publication US5160526A, “Alkene stabilizers for 3-isothiazolone compounds” (priority 1991, dated 1992):
# Where two headings read alike, the source gives them in different places.
# What was measured:
# [1] = type: physicochemical; conditions: for 2-Methyl (%) / 5-Chloro (%): 2-propanol, 55° C
# Method: Varying amounts of DHP were added and the vials put in a 55° C. oven. Active ingredient analysis was done periodically.
# [2] = for 2-Methyl (%) / 5-Chloro (%): 2-propanol + 2% water, 55° C
# Method: A solution of 5-chloro-2methyl-3-isothiazolone ("5-Chloro") and 2-methyl-3-isothiazolone ("2-Methyl") (3.11 g) was prepared in 2-propanol (12.1 g). This solution was distributed in 6 vials. Water (2%) and varying amounts of norbornene were then added. These were then put in a 55° C. oven and analyzed periodically.
# [3] = Stabilization of 5-Chloro and 2-Methyl mixture by norbornene in dipropylene glycol containing 0.5% water, 55° C oven; type: physicochemical; conditions: DPG (0.5% water)
# Method: To 19.9 g of dipropylene glycol was added 0.1 g of water. […] This solution was distributed into 6 vials and varying amounts of norbornene were added.
# [4] = type: physicochemical; conditions: DPG, 55° C
# Method: This solution was distributed into 6 vials (3 g each) and varying amounts of cyclohexene were added. The vials were then heated at 55° C. and analyzed periodically.
# [5] = Stabilization of 5-Chloro and 2-Methyl mixture by norbornene in 2-propanol, 55° C oven; type: physicochemical; conditions: 2-propanol, 55° C
# Excerpt: This solution was distributed into 6 vials and varying amounts of norbornene added.
smiles,measurement,setting,value
"C1=COCCC1 [DHP, 3,4-Dihydro-2H-pyran]",stability imparted to isothiazolones (in words),[1],imparts no stability
C1=CC2CCC1C2 [norbornene],stability realized (in words),[2],Some stability is realized
same,stabilization properties in presence of water (in words),[2],overwhelms the stabilization properties
Cn1sccc1=O [2-methyl-3-isothiazolone],2-Methyl (%) / 5-Chloro (%),"[1]; 0% DHP, 0 days",5.3%
same,2-Methyl (%) / 5-Chloro (%),"[1]; 0% DHP, 12 days",0.4%
same,2-Methyl (%) / 5-Chloro (%),"[1]; 3.5% DHP, 0 days",5.1%
same,2-Methyl (%) / 5-Chloro (%),"[1]; 3.5% DHP, 12 days",0.7%
same,2-Methyl (%) / 5-Chloro (%),"[1]; 6.3% DHP, 0 days",5.0%
same,2-Methyl (%) / 5-Chloro (%),"[1]; 6.3% DHP, 12 days",0.6%
same,2-Methyl (%) / 5-Chloro (%),"[1]; 11.8% DHP, 0 days",4.2%
same,2-Methyl (%) / 5-Chloro (%),"[1]; 11.8% DHP, 12 days",0.7%
same,2-Methyl (%) / 5-Chloro (%),"[1]; 16.7% DHP, 0 days",4.4%
same,2-Methyl (%) / 5-Chloro (%),"[1]; 16.7% DHP, 12 days",0.7%
same,2-Methyl (%) / 5-Chloro (%),"[1]; 21.1% DHP, 0 days",4.2%
same,2-Methyl (%) / 5-Chloro (%),"[1]; 21.1% DHP, 12 days",0.6%
same,2-Methyl (%) / 5-Chloro (%),"[3]; 0% norbornene, 0 days",4.5%
same,2-Methyl (%) / 5-Chloro (%),"[3]; 0% norbornene, 14 days",0.6%
same,2-Methyl (%) / 5-Chloro (%),"[3]; 1.6% norbornene, 0 days",4.4%
same,2-Methyl (%) / 5-Chloro (%),"[3]; 1.6% norbornene, 14 days",0.18%
same,2-Methyl (%) / 5-Chloro (%),"[3]; 3.2% norbornene, 0 days",4.3%
same,2-Methyl (%) / 5-Chloro (%),"[3]; 3.2% norbornene, 14 days",3.3%
same,2-Methyl (%) / 5-Chloro (%),"[3]; 3.2% norbornene, 30 days",0.6%
same,2-Methyl (%) / 5-Chloro (%),"[3]; 6.5% norbornene, 0 days",4.2%
same,2-Methyl (%) / 5-Chloro (%),"[3]; 6.5% norbornene, 14 days",3.7%
same,2-Methyl (%) / 5-Chloro (%),"[3]; 6.5% norbornene, 30 days",2.7%
same,2-Methyl (%) / 5-Chloro (%),"[3]; 9.0% norbornene, 0 days",4.1%
same,2-Methyl (%) / 5-Chloro (%),"[3]; 9.0% norbornene, 14 days",3.7%
same,2-Methyl (%) / 5-Chloro (%),"[3]; 9.0% norbornene, 30 days",3.3%
same,2-Methyl (%) / 5-Chloro (%),"[3]; 14.3% norbornene, 0 days",4.4%
same,2-Methyl (%) / 5-Chloro (%),"[3]; 14.3% norbornene, 14 days",3.6%
same,2-Methyl (%) / 5-Chloro (%),"[3]; 14.3% norbornene, 30 days",3.3%
same,2-Methyl (%) / 5-Chloro (%),"[4]; 0% cyclohexene, 0 days",5.0%
same,2-Methyl (%) / 5-Chloro (%),"[4]; 0% cyclohexene, 13 days",0.49%
same,2-Methyl (%) / 5-Chloro (%),"[4]; 3.2% cyclohexene, 0 days",4.7%
same,2-Methyl (%) / 5-Chloro (%),"[4]; 3.2% cyclohexene, 13 days",0.35%
same,2-Methyl (%) / 5-Chloro (%),"[4]; 6.8% cyclohexene, 0 days",4.6%
same,2-Methyl (%) / 5-Chloro (%),"[4]; 6.8% cyclohexene, 13 days",0.23%
same,2-Methyl (%) / 5-Chloro (%),"[4]; 9.1% cyclohexene, 0 days",4.5%
same,2-Methyl (%) / 5-Chloro (%),"[4]; 9.1% cyclohexene, 13 days",0.95%
same,2-Methyl (%) / 5-Chloro (%),"[4]; 9.1% cyclohexene, 30 days",0.66%
same,2-Methyl (%) / 5-Chloro (%),"[4]; 11.8% cyclohexene, 0 days",4.4%
same,2-Methyl (%) / 5-Chloro (%),"[4]; 11.8% cyclohexene, 13 days",0.59%
same,2-Methyl (%) / 5-Chloro (%),"[4]; 11.8% cyclohexene, 30 days",0.62%
same,2-Methyl (%) / 5-Chloro (%),"[4]; 16.7% cyclohexene, 0 days",4.3%
same,2-Methyl (%) / 5-Chloro (%),"[4]; 16.7% cyclohexene, 13 days",2.6%
same,2-Methyl (%) / 5-Chloro (%),"[4]; 16.7% cyclohexene, 30 days",0.46%
same,2-Methyl (%) / 5-Chloro (%),"[2]; 0% norbornene, 0 days",1.7%
same,2-Methyl (%) / 5-Chloro (%),"[2]; 0% norbornene, 7 days",0.22%
same,2-Methyl (%) / 5-Chloro (%),"[2]; 1.2% norbornene, 0 days",2.3%
same,2-Methyl (%) / 5-Chloro (%),"[2]; 1.2% norbornene, 7 days",0.14%
same,2-Methyl (%) / 5-Chloro (%),"[2]; 2.3% norbornene, 0 days",2.3%
same,2-Methyl (%) / 5-Chloro (%),"[2]; 2.3% norbornene, 7 days",0.08%
same,2-Methyl (%) / 5-Chloro (%),"[2]; 4.2% norbornene, 0 days",2.2%
same,2-Methyl (%) / 5-Chloro (%),"[2]; 4.2% norbornene, 7 days",0.10%
same,2-Methyl (%) / 5-Chloro (%),"[2]; 8.1% norbornene, 0 days",2.2%
same,2-Methyl (%) / 5-Chloro (%),"[2]; 8.1% norbornene, 7 days",0.10%
same,2-Methyl (%) / 5-Chloro (%),"[2]; 14.1% norbornene, 0 days",2.0%
same,2-Methyl (%) / 5-Chloro (%),"[2]; 14.1% norbornene, 7 days",0.97%
same,2-Methyl (%) / 5-Chloro (%),"[2]; 14.1% norbornene, 21 days",0.1%
same,% Remaining After X Days,"[5]; 0% norbornene, 0 days",4.9%
same,% Remaining After X Days,"[5]; 0% norbornene, 2 days",0.4%
same,% Remaining After X Days,"[5]; 0% norbornene, 30 days",0.7%
same,stabilization with norbornene (in words),[5],completely stabilized
same,% Remaining After X Days,"[5]; 3% norbornene, 0 days",4.7%
same,% Remaining After X Days,"[5]; 3% norbornene, 2 days",4.4%
same,% Remaining After X Days,"[5]; 3% norbornene, 30 days",3.9%
same,% Remaining After X Days,"[5]; 6.3% norbornene, 0 days",4.5%
same,% Remaining After X Days,"[5]; 6.3% norbornene, 2 days",4.3%
same,% Remaining After X Days,"[5]; 6.3% norbornene, 30 days",4.0%
same,% Remaining After X Days,"[5]; 11.8% norbornene, 0 days",4.2%
same,% Remaining After X Days,"[5]; 11.8% norbornene, 2 days",4.0%
same,% Remaining After X Days,"[5]; 11.8% norbornene, 30 days",3.9%
same,% Remaining After X Days,"[5]; 16.7% norbornene, 0 days",4.0%
same,% Remaining After X Days,"[5]; 16.7% norbornene, 2 days",3.9%
same,% Remaining After X Days,"[5]; 16.7% norbornene, 30 days",3.7%
same,% Remaining After X Days,"[5]; 21.0% norbornene, 0 days",3.9%
same,% Remaining After X Days,"[5]; 21.0% norbornene, 2 days",3.8%
same,% Remaining After X Days,"[5]; 21.0% norbornene, 30 days",3.7%
